Reference: ChEMBL document CHEMBL1201862, “PubChem BioAssay data set” (2004)
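Where inhibition never reached the appropriate level, the endpoint shown equals the highest concentration tested. Otherwise, values were interpolated linearly from a five-concentration, 48-hour dose response in 96-well plates. GI50 = concentration required for 50% inhibition of growth.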 Activity calls are given as the source filed them. Cut-off read from the data, not from the text of the source: active = GI50 up to about 1.1 µM and inactive = higher.

How the values were obtained:
Assay in all cases: NCI-60 cell line screen, 48 h
RPMI-8226 = system: RPMI-8226
OVCAR-5 = system: OVCAR-5
U-251 = system: U-251
RXF 393 = system: RXF 393
NCI-H460 = system: NCI-H460
SF-539 = system: SF-539
NCI-H226 = system: NCI-H226
A498 = system: A498
SNB-19 = system: SNB-19
TK-10 = system: TK-10
K562 = system: K562
HOP-92 = system: HOP-92
SK-OV-3 = system: SK-OV-3
M14 = system: M14
Malme-3M = system: Malme-3M
OVCAR-8 = system: OVCAR-8
SK-MEL-28 = system: SK-MEL-28

Measured: GI50

Cc1nc2cc3nc4ccccc4c(O)c3cc2s1
inactive: RPMI-8226 > 100 µM | OVCAR-5 > 100 µM | U-251 > 100 µM | RXF 393 > 100 µM | NCI-H460 > 100 µM | SF-539 > 100 µM | NCI-H226 > 100 µM | A498 > 100 µM | SNB-19 > 100 µM | TK-10 > 100 µM | K562 > 100 µM | HOP-92 > 100 µM | SK-OV-3 > 100 µM | M14 > 100 µM | Malme-3M > 100 µM | OVCAR-8 > 100 µM

CCOC(=O)C1(c2ccccc2)CCCNCC1 (stereo unspecified)
inactive: RPMI-8226 88.1 µM | OVCAR-5 81.3 µM | U-251 > 100 µM | RXF 393 > 100 µM | NCI-H460 29 µM | NCI-H226 > 100 µM | A498 45.8 µM | SNB-19 > 100 µM | TK-10 > 100 µM | K562 > 100 µM | HOP-92 75.2 µM | SK-MEL-28 > 100 µM | SK-OV-3 > 100 µM | M14 > 100 µM | Malme-3M > 100 µM | OVCAR-8 39.4 µM

CCOC(=O)C(=O)Nc1c(C(C)C)cccc1C(C)C
inactive: U-251 > 100 µM | RXF 393 > 100 µM | NCI-H460 > 100 µM | SF-539 > 100 µM | NCI-H226 > 100 µM | A498 > 100 µM | SNB-19 > 100 µM | TK-10 > 100 µM | HOP-92 > 100 µM | SK-MEL-28 > 100 µM | SK-OV-3 > 100 µM | M14 > 100 µM | Malme-3M > 100 µM | OVCAR-8 > 100 µM

COc1cc(C(N)=O)c(OC)c(OC)c1OC
inactive: RPMI-8226 > 100 µM | OVCAR-5 > 100 µM | U-251 > 100 µM | RXF 393 > 100 µM | NCI-H460 > 100 µM | SF-539 > 100 µM | NCI-H226 > 100 µM | A498 > 100 µM | SNB-19 > 100 µM | TK-10 > 100 µM | K562 > 100 µM | HOP-92 > 100 µM | SK-MEL-28 > 100 µM | SK-OV-3 > 100 µM | M14 > 100 µM | OVCAR-8 > 100 µM

NC(=S)N/N=C1\C(=O)N(c2cccc([N+](=O)[O-])c2)C(=O)C1C(=O)Nc1cccc([N+](=O)[O-])c1 (stereo unspecified)
inactive: RPMI-8226 > 100 µM | OVCAR-5 > 100 µM | U-251 > 100 µM | RXF 393 > 100 µM | SF-539 > 100 µM | NCI-H226 > 100 µM | A498 > 100 µM | SNB-19 > 100 µM | TK-10 > 100 µM | K562 > 100 µM | HOP-92 > 100 µM | SK-MEL-28 > 100 µM | SK-OV-3 > 100 µM | M14 > 100 µM | Malme-3M > 100 µM | OVCAR-8 > 100 µM

CN(C)CC1CCCC/C1=N/O (stereo unspecified)
inactive: RPMI-8226 > 100 µM | OVCAR-5 > 100 µM | U-251 > 100 µM | RXF 393 > 100 µM | NCI-H460 > 100 µM | SF-539 > 100 µM | NCI-H226 > 100 µM | A498 > 100 µM | TK-10 > 100 µM | K562 > 100 µM | HOP-92 > 100 µM | SK-MEL-28 > 100 µM | SK-OV-3 > 100 µM | M14 > 100 µM | Malme-3M > 100 µM | OVCAR-8 > 100 µM

O=C(NS(=O)(=O)c1ccccc1)C(Cc1ccccc1)C(Cc1ccccc1)C(=O)NS(=O)(=O)c1ccccc1 (stereo unspecified)
inactive: RPMI-8226 > 100 µM | OVCAR-5 > 100 µM | U-251 > 100 µM | RXF 393 > 100 µM | NCI-H460 > 100 µM | SF-539 > 100 µM | NCI-H226 62.4 µM | A498 > 100 µM | SNB-19 > 100 µM | TK-10 > 100 µM | K562 > 100 µM | HOP-92 > 100 µM | SK-MEL-28 > 100 µM | SK-OV-3 > 100 µM | M14 > 100 µM | Malme-3M > 100 µM | OVCAR-8 > 100 µM

O=S1(=O)c2ccccc2N(O)C2=NCCN21
inactive: RPMI-8226 > 100 µM | OVCAR-5 > 100 µM | U-251 > 100 µM | RXF 393 > 100 µM | NCI-H460 > 100 µM | SF-539 > 100 µM | NCI-H226 25.9 µM | A498 28.6 µM | SNB-19 > 100 µM | TK-10 > 100 µM | K562 > 100 µM | HOP-92 > 100 µM | SK-MEL-28 > 100 µM | SK-OV-3 > 100 µM | M14 > 100 µM | Malme-3M > 100 µM | OVCAR-8 > 100 µM

CC1OC(OC2C(OC(=O)[C@]34CCC(C)(C)CC3C3=CCC5[C@@]6(C)C[C@H](O)[C@H](OC7OC(COC8OC(CO)C(O)C(O)C8O)C(O)C(O)C7O)[C@@](C)(C(=O)O)C6CC[C@@]5(C)C3(C)CC4)OCC(O)C2O)C(O)C(O)C1OC1OCC(O)C(O)C1O (stereo partly specified)
inactive: RPMI-8226 > 100 µM | OVCAR-5 > 100 µM | U-251 > 100 µM | RXF 393 > 100 µM | NCI-H460 > 100 µM | SF-539 > 100 µM | NCI-H226 > 100 µM | A498 > 100 µM | SNB-19 > 100 µM | TK-10 > 100 µM | K562 > 100 µM | HOP-92 > 100 µM | SK-MEL-28 > 100 µM | SK-OV-3 > 100 µM | Malme-3M > 100 µM | OVCAR-8 > 100 µM

COC1C2C=CC(C2)[C@H]1[N+](=O)[O-] (stereo partly specified)
inactive: OVCAR-5 > 100 µM | U-251 > 100 µM | RXF 393 > 100 µM | NCI-H460 > 100 µM | SF-539 > 100 µM | NCI-H226 > 100 µM | A498 > 100 µM | SNB-19 > 100 µM | TK-10 > 100 µM | K562 > 100 µM | HOP-92 > 100 µM | SK-OV-3 > 100 µM | M14 > 100 µM | Malme-3M > 100 µM | OVCAR-8 56.8 µM

O=C(Cc1nc2ccccc2c(=O)n1-c1ccccc1Cl)c1ccncc1
inactive: OVCAR-5 > 100 µM | U-251 > 100 µM | RXF 393 > 100 µM | NCI-H460 > 100 µM | SF-539 > 100 µM | NCI-H226 > 100 µM | A498 > 100 µM | SNB-19 > 100 µM | TK-10 > 100 µM | K562 > 100 µM | HOP-92 > 100 µM | SK-MEL-28 > 100 µM | SK-OV-3 > 100 µM | M14 > 100 µM | Malme-3M > 100 µM | OVCAR-8 > 100 µM

CC(C)(C)CC(C)(C)c1ccc(OCCOCC[N+](C)(C)Cc2ccccc2)cc1 [BENZETHONIUM CHLORIDE]
inactive: RPMI-8226 1.29 µM | OVCAR-5 6.17 µM | U-251 1.54 µM | RXF 393 3.11 µM | NCI-H460 3.05 µM | NCI-H226 5.19 µM | A498 16.6 µM | SNB-19 3.1 µM | TK-10 3.64 µM | K562 2.19 µM | HOP-92 1.88 µM | SK-MEL-28 1.86 µM | SK-OV-3 7.43 µM | M14 2.08 µM | Malme-3M 1.52 µM | OVCAR-8 3.19 µM
